Measurements as given in BigSolDB 2.1.

C=CC(=O)NCO
Details	solubility (mole fraction)
in acetonitrile, 279.15 K	0.0244
in acetonitrile, 282.05 K	0.0276
in acetonitrile, 288.15 K	0.0341
in acetonitrile, 292.75 K	0.041
in acetonitrile, 298.15 K	0.0499
in acetonitrile, 304.05 K	0.0614
in acetonitrile, 308.55 K	0.0716
in chloroform, 279.65 K	0.0011
in chloroform, 282.35 K	0.0013
in chloroform, 286.05 K	0.0015
in chloroform, 289.85 K	0.0019
in chloroform, 294.45 K	0.0023
in chloroform, 299.15 K	0.0029
in chloroform, 303.25 K	0.0035
in dichloromethane, 277.55 K	0.0018
in dichloromethane, 280.35 K	0.0019
in dichloromethane, 282.95 K	0.0021
in dichloromethane, 285.55 K	0.0023
in dichloromethane, 288.15 K	0.0025
in dichloromethane, 291.75 K	0.0028
in ethyl acetate, 278.55 K	0.0109
in ethyl acetate, 281.85 K	0.0127
in ethyl acetate, 285.05 K	0.0146
in ethyl acetate, 289.15 K	0.0176
in ethyl acetate, 296.95 K	0.0248
in ethyl acetate, 300.95 K	0.0294
in ethyl acetate, 305.05 K	0.0351
in furan, 278.55 K	0.0445
in furan, 282.05 K	0.0515
in furan, 284.45 K	0.0574
in furan, 288.25 K	0.0683
in furan, 291.45 K	0.0789
in furan, 294.85 K	0.0919
in furan, 297.25 K	0.102
in n-butyl acetate, 278.05 K	0.0037
in n-butyl acetate, 281.15 K	0.0045
in n-butyl acetate, 284.35 K	0.0055
in n-butyl acetate, 288.95 K	0.0073
in n-butyl acetate, 292.05 K	0.0087
in n-butyl acetate, 295.35 K	0.0105
in n-butyl acetate, 301.45 K	0.0148
in pyridine, 278.55 K	0.232
in pyridine, 281.35 K	0.245
in pyridine, 286.95 K	0.272
in pyridine, 292.25 K	0.303
in pyridine, 297.95 K	0.339
in pyridine, 302.15 K	0.367
in pyridine, 306.25 K	0.401
in toluene, 279.75 K	0.0004
in toluene, 284.35 K	0.0006
in toluene, 287.95 K	0.0008
in toluene, 291.55 K	0.0009
in toluene, 294.95 K	0.0011
in toluene, 298.55 K	0.0014
in toluene, 305.35 K	0.002
